# Assay results published in patent US11224601B1, “Compounds that inhibits MCL-1 protein” (priority 2017, dated 2022).
# Where two headings read alike, the source gives them in different places.
# Legend:
# [1] = target: recombinant human Mcl-1 (Mcl-1/Bim interaction) (Homo sapiens (Human), UniProt Q07820); test: biochemical; assay type: binding; conditions: cell free Mcl-1:Bim TR-FRET
# Method: Cell free Mcl-1:Bim Affinity Assay (Mcl-1 HTRF)
# The inhibition of the Mcl-1/Bim interaction was measured using a time-resolved fluorescence resonance energy transfer (TR-FRET) assay. The recombinant human Mcl-1 (C-terminally 6×His tagged Mcl-1 containing residues 171-327) was generated at Amgen Inc (Thousand Oaks, Calif.). A biotinylated peptide derived from human Bim (residues 51-76) was purchased from CPC Scientific (San Jose, Calif.). The TR-FRET assay was conducted in a 384-well white OptiPlate™ (PerkinElmer, Waltham, Mass.) in a total volume of 40 μL. The reaction mixture contained 0.1 nM Mcl-1(171-327), 0.05 nM biotin-Bim(51-76), 0.05 nM LANCE® Eu-W1024 Anti-6×His (PerkinElmer), 0.072 nM Streptavidin-Xlent (Cisbio, Bedford, Mass.), and serially diluted test compounds in the binding buffer of 20 mM Hepes, pH 7.5, 150 mM NaCl, 0.016 mM Brij® 35, and 1 mM dithiothreitol. Test compounds were pre-incubated with Mcl-1(171-327) and biotin-Bim (51-76) for 60 min before addition of the detection mixture (LANCE® Eu-W1024 Anti-6×His and Streptavidin-Xlent). The reaction plates were further incubated overnight and then were read on an Envision® multimode reader (PerkinElmer). Fluorescence signals were measured at 620 nm (40-nm bandwidth) and 665 nm (7.5-nm bandwidth) with a 60 μs delay after excitation at 320 nm (75-nm bandwidth). The signal ratio at 665/620 nm corresponded to the Mcl-1/Bim interaction and was used in all data analyses. The IC50 values of test compounds were determined from duplicate data by analyzing competition curves using a four-parameter sigmoidal model in GraphPad Prism (GraphPad Software, San Diego, Calif.) or in Genedata Screener® (Genedata, Basel, Switzerland).
# [2] = tested on: OPM-2 human multiple myeloma cell line; test: Cell Viability Assay (OPM-2 10 FBS), CellTiter-Glo; assay type: cell-based
# Method: Cell Viability Assay (OPM-2 10 FBS)
# The human multiple myeloma cell line, OPM-2, was cultured in complete growth medium containing RPMI 1640 and 10% fetal bovine serum (FBS). Cells were seeded into 384-well plates at 3000 cells/well density in complete growth medium containing 10% FBS, and incubated for 16 h with serially diluted test compounds in a 37° C. incubator with 5% CO2. Cell viability was tested using CellTiter-Glo® assay (Promega, Madison, Wis.) according to the manufacturer recommendations. Luminescence was determined using an EnVision® Multilabel plate reader 25 min after the addition of detection reagent. IC50 values were then calculated with Xlfit using a logistical 4-parameter fit model in GraphPad Prism (GraphPad Software, San Diego, Calif.) or in Genedata Screener® (Genedata, Basel, Switzerland).
# [3] = Homo sapiens, OPM-2, 16 h, read-out: OPM-2 10% FBS IC50 IP (μM), OPM-2 cells, 10% FBS, 16 h, CellTiter-Glo
# [4] = Homo sapiens, OPM-2, 16 h, read-out: OPM-2 10% FBS IC50 IP, OPM-2 cells, 10% FBS, 16 h, CellTiter-Glo
# Sequence of recombinant human Mcl-1 (Mcl-1/Bim interaction) (Q07820 171-327): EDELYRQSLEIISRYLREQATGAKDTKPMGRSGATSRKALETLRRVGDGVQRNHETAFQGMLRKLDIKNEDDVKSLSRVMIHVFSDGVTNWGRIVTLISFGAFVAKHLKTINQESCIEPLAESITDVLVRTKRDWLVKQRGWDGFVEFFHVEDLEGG
Compound,IC50 ([1]; read-out: Mcl-1 HTRF IC50) [nM],"IC50 [2, 3] [µM]",IC50 ([1]; read-out: Mel-1 HTRF IC50) [nM],"IC50 ([2]; read-out: OPM-2 10% FBS IC50 IP, OPM-2 cells, 10% FBS, 16 h, CellTiter-Glo) [µM]","IC50 [2, 4] [µM]"
"CO[C@@]1(CN2CCN3CCOC[C@@H]3C2)/C=C/C[C@H](C)[C@H]2CCN(C(=O)c3ccc4c(c3)N(C[C@@H]3CC[C@H]31)C[C@@]1(CCCc3cc(Cl)ccc31)CO4)S2(=O)=O [Example 364, (1S,3′R,6′R,7′S,8′E,11′S,12′R)-6-chloro-7′-((9aS)-hexahydropyrazino[2,1-c][1,4]oxazin-8(1H)-ylmethyl)-7′-methoxy-11′-methyl-3,4-dihydro-2H,16′H-spiro[naphthalene-1,23′-[21]oxa[27]thia[1,15]diazapentacyclo[15.7.2.1˜12,15˜.0˜3,6˜.0˜20,25˜]heptacosa[8,17,19,25]tetraen]-16′-one 27′,27′-dioxide]",192,> 33.3,,,
"CC(C)CO[C@@]1(CN2CCN(C3COC3)CC2)/C=C/C[C@H](C)[C@@H](C)S(=O)(=O)NC(=O)c2ccc3c(c2)N(C[C@@H]2CC[C@H]21)C[C@@]1(CCCc2cc(Cl)ccc21)CO3 [Example 348, (1S,3′R,6′R,7′S,8′E,11′S,12′R)-6-chloro-11′,12′-dimethyl-7′-(2-methylpropoxy)-7′-((4-(3-oxetanyl)-1-piperazinyl)methyl)-3,4-dihydro-2H,15′H-spiro[naphthalene-1,22′-[20]oxa[13]thia[1,14]diazatetracyclo[14.7.2.0˜3,6˜.0˜19,24˜]pentacosa[8,16,18,24]tetraen]-15′-one 13′,13′-dioxide]",2.62,5.36,,,
"(1S,3′R,6′R,7′R,11′S,12′R)-6-chloro-7′- hydroxy-11′,12′-dimethyl-7′-(1-methyl-4- piperidinyl)-3,4-dihydro-2H,15′H- spiro[naphthalene-1,22′- [20]oxa[13]thia[1,14]diazatetracyclo [14.7.2.0~3,6~.0~19,24~]pentacosa[16,18,24] trien]-15′-one 13′,13′-dioxide [Example 100382]",,,0.471,0.312,
"CO[C@@]1(CN2CCN3CCCC[C@@H]3C2)/C=C/C[C@H](C)[C@@H](Cc2ccccc2)S(=O)(=O)NC(=O)c2ccc3c(c2)N(C[C@@H]2CC[C@H]21)C[C@@]1(CCCc2cc(Cl)ccc21)CO3 (single isomer, unassigned) [Example 104]",1.12,0.782,,,
CO[C@@]1(CC(=O)NC[C@@H](O)C(F)(F)F)/C=C/C[C@H](C)[C@@H](C)S(=O)(=O)NC(=O)c2ccc3c(c2)N(C[C@@H]2CC[C@H]21)C[C@@]1(CCCc2cc(Cl)ccc21)CO3.CO[C@@]1(CC(=O)NC[C@H](O)C(F)(F)F)/C=C/C[C@H](C)[C@@H](C)S(=O)(=O)NC(=O)c2ccc3c(c2)N(C[C@@H]2CC[C@H]21)C[C@@]1(CCCc2cc(Cl)ccc21)CO3 [Example 100563],,,0.065,,0.51
"CO[C@]1(CN2CCN3CCCC[C@@H]3C2)/C=C/C[C@H](C)[C@@H](CCO)S(=O)(=O)NC(=O)c2ccc3c(c2)N(C[C@@H]2CC[C@H]21)C[C@@]1(CCCc2cc(Cl)ccc21)CO3 [Example 358, (1S,3′R,6′R,7′R,8′E,11′S,12′R)-6-chloro-12′-(2-hydroxyethyl)-7′-methoxy-11′-methyl-7′-((9aR)-octahydro-2H-pyrido[1,2-a]pyrazin-2-ylmethyl)-3,4-dihydro-2H,15′H-spiro[naphthalene-1,22′-[20]oxa[13]thia[1,14]diazatetracyclo[14.7.2.0˜3,6˜.0˜19,24˜]pentacosa[8,16,18,24]tetraen]-15′-one 13′,13′-dioxide]",0.066,0.144,,,
CO[C@@]1(CN2CCN([C@H]3CCOC3)CC2)/C=C/C[C@H](C)[C@@H](C)S(=O)(=O)NC(=O)c2ccc3c(c2)N(C[C@@H]2CC[C@H]21)C[C@@]1(CCCc2cc(Cl)ccc21)CO3 (stereo in doubt) [Example 275],0.176,0.082,,,
"CCO[C@]1(CN2CCN3CCOC[C@@H]3C2)CCC[C@H](C)[C@@H](CCOC)S(=O)(=O)NC(=O)c2ccc3c(c2)N(C[C@@H]2CC[C@H]21)C[C@@]1(CCCc2ccccc21)CO3 [Example 517, (1S,3′R,6′R,7′R,11′S,12′R)-7′-ethoxy-7′-((9aS)-hexahydropyrazino[2,1-c][1,4]oxazin-8(1H)-ylmethyl)-12′-(2-methoxyethyl)-11′-methyl-3,4-dihydro-2H,15′H-spiro[naphthalene-1,22′-[20]oxa[13]thia[1,14]diazatetracyclo[14.7.2.0˜3,6˜.0˜19,24˜]pentacosa[16,18,24]trien]-15′-one 13′,13′-dioxide]",0.259,0.252,,,
"C[C@@H]1[C@@H](C)C/C=C/[C@](O)(CN2CCN3CCOC[C@@H]3C2)[C@@H]2CC[C@H]2CN2C[C@@]3(CCCc4cc(Cl)ccc43)COc3ccc(cc32)C(=O)NS1(=O)=O [Example 213, (1S,3′R,6′R,7′R,8′E,11′S,12′R)-6-chloro-7′-((9aS)-hexahydropyrazino[2,1-c][1,4]oxazin-8(1H)-ylmethyl)-7′-hydroxy-11′,12′-dimethyl-3,4-dihydro-2H,15′H-spiro[naphthalene-1,22′-[20]oxa[13]thia[1,14]diazatetracyclo[14.7.2.0˜3,6˜.0˜19,24˜]pentacosa[8,16,18,24]tetraen]-15′-one 13′,13′-dioxide]",0.239,0.4,,,
"CO[C@]1(CN2CCN3CCCC[C@@H]3C2)/C=C/C[C@H](C)[C@@H](CCO[Si](c2ccccc2)(c2ccccc2)C(C)(C)C)S(=O)(=O)NC(=O)c2ccc3c(c2)N(C[C@@H]2CC[C@H]21)C[C@@]1(CCCc2cc(Cl)ccc21)CO3 [Example 359, (1S,3′R,6′R,7′R,8′E,11′S,12′R)-6-chloro-7′-methoxy-11′-methyl-12′-(2-(((2-methyl-2-propanyl)(diphenyl)silyl)oxy)ethyl)-7′-((9aR)-octahydro-2H-pyrido[1,2-a]pyrazin-2-ylmethyl)-3,4-dihydro-2H,15′H-spiro[naphthalene-1,22′-[20]oxa[13]thia[1,14]diazatetracyclo[14.7.2.0˜3,6˜.0˜19,24˜]pentacosa[8,16,18,24]tetraen]-15′-one 13′,13′-dioxide]",2.08,> 33.3,,,
"CO[C@@]1(CN2CCN3CCOC[C@@H]3C2)/C=C/C[C@H](C)[C@@H](CCCl)S(=O)(=O)NC(=O)c2ccc3c(c2)N(C[C@@H]2CC[C@H]21)C[C@@]1(CCCc2cc(Cl)ccc21)CO3 [Example 366, (1S,3′R,6′R,7′S,8′E,11′S,12′R)-6-chloro-12′-(2-chloroethyl)-7′-((9aS)-hexahydropyrazino[2,1-c][1,4]oxazin-8(1H)-ylmethyl)-7′-methoxy-11′-methyl-3,4-dihydro-2H,15′H-spiro[naphthalene-1,22′-[20]oxa[13]thia[1,14]diazatetracyclo[14.7.2.0˜3,6˜.0˜19,24˜]pentacosa[8,16,18,24]tetraen]-15′-one 13′,13′-dioxide]",0.248,0.133,,,
"COCC[C@@H]1[C@@H](C)C/C=C/[C@](CN2CCN3CCOC[C@@H]3C2)(OC)[C@@H]2CC[C@H]2CN2C[C@@]3(CCCc4cc(Cl)ccc43)COc3ccc(nc32)C(=O)NS1(=O)=O [Example 20, (1S,3′R,6′R,7′S,8′E,11′S,12′R)-6-chloro-7′-((9aS)-hexahydropyrazino[2,1-c][1,4]oxazin-8(1H)-ylmethyl)-7′-methoxy-12′-(2-methoxyethyl)-11′-methyl-3,4-dihydro-2H,15′H-spiro[naphthalene-1,22′-[20]oxa[13]thia[1,14,25]triazatetracyclo[14.7.2.0˜3,6˜.0˜19,24˜]pentacosa[8,16,18,24]tetraen]-15′-one 13′,13′-dioxide]",0.082,0.022,,,
CO[C@]1(CN2CCN3CCCCC[C@@H]3C2)/C=C/C[C@H](C)[C@@H](C)S(=O)(=O)NC(=O)c2ccc3c(c2)N(C[C@@H]2CC[C@H]21)C[C@@]1(CCCc2cc(Cl)ccc21)CO3 (stereo in doubt) [Example 87],0.127,0.141,,,
"CO[C@@]1(C#CCCN2CCS(=O)(=O)CC2)/C=C/C[C@H](C)[C@@H](C)S(=O)(=O)NC(=O)c2ccc3c(c2)N(C[C@@H]2CC[C@H]21)C[C@@]1(CCCc2cc(Cl)ccc21)CO3 [Example 100456, (1S,3′R,6′R,7′S,8′E,11′S,12′R)-6-chloro-7′-(4-(1,1-dioxido-4-thiomorpholinyl)-1-butyn-1-yl)-7′-methoxy-11′,12′-dimethyl-3,4-dihydro-2H,15′H-spiro[naphthalene-1,22′-[20]oxa[13]thia[1,14]diazatetracyclo [14.7.2.0~3,6~.0~19,24~]pentacosa[8,16,18,24]tetraen]-15′-one 13′,13′-dioxide]",,,0.565,,1.23
"CCO[C@]1(CN2CCN(C(C)C)[C@H](C)C2)/C=C/C[C@H](C)[C@@H](CCOC)S(=O)(=O)NC(=O)c2ccc3c(c2)N(C[C@@H]2CC[C@H]21)C[C@@]1(CCCc2cc(Cl)ccc21)CO3 [Example 17, (1S,3′R,6′R,7′R,8′E,11′S,12′R)-6-chloro-7′-ethoxy-12′-(2-methoxyethyl)-11′-methyl-7′-(((3R)-3-methyl-4-(1-methylethyl)-1-piperazinyl)methyl)-3,4-dihydro-2H,15′H-spiro[naphthalene-1,22′-[20]oxa[13]thia[1,14]diazatetracyclo[14.7.2.0˜3,6˜.0˜19,24˜]pentacosa[8,16,18,24]tetraen]-15′-one 13′,13′-dioxide]",0.073,0.034,,,
